From patent US6353120B2, “Process for the preparation of a paclitaxel C-4 methyl carbonate analog” (Bristol-Myers Squibb Company, priority 1999, dated 2002)

How the values were obtained:
[1] = tested on: HCT/pk human colon carcinoma xenograft (multidrug resistant tumor model); assay: distal site tumor model, HCT/pk human colon carcinoma xenograft; format: in vivo
[2] = tested on: L2987 human lung carcinoma xenograft; assay: distal site tumor model, L2987 human lung carcinoma xenograft; format: in vivo
tubulin = tubulin polymerization assay; format: biochemical
[3] = tested on: HOC79, a clinically derived Taxol unresponsive ovarian carcinoma xenograft; assay: distal site tumor model, HOC79 ovarian carcinoma xenograft; format: in vivo
[4] = tested on: M109 murine lung carcinoma; assay: distal site tumor model, M109 murine lung carcinoma; format: in vivo

Substance: C-4 methylcarbonate analog of paclitaxel [Compound I]
- antitumor activity compared with paclitaxel [1]: superior to paclitaxel
- antitumor activity compared with paclitaxel [2]: superior to paclitaxel
- potency in tubulin polymerization relative to paclitaxel (tubulin): about twice as potent as paclitaxel
- antitumor activity compared with paclitaxel [3]: superior to paclitaxel
- antitumor activity compared with paclitaxel [4]: superior to paclitaxel
